From the Kinase Knowledgebase extract (Sharma et al. 2016)

Key:
[1] = target: EGFR (Human), P00533 [T790M/L858R]
[2] = target: EGFR (Human), P00533 [T790M/L858R]; conditions: nci-h1975
[3] = target: EGFR (Human), P00533 [T790M/L858R]; conditions: nci-h1975; remark: listed apart in the source

Sequence of EGFR (Human), P00533 [T790M/L858R] (P00533 whole entry T790M/L858R, looked up): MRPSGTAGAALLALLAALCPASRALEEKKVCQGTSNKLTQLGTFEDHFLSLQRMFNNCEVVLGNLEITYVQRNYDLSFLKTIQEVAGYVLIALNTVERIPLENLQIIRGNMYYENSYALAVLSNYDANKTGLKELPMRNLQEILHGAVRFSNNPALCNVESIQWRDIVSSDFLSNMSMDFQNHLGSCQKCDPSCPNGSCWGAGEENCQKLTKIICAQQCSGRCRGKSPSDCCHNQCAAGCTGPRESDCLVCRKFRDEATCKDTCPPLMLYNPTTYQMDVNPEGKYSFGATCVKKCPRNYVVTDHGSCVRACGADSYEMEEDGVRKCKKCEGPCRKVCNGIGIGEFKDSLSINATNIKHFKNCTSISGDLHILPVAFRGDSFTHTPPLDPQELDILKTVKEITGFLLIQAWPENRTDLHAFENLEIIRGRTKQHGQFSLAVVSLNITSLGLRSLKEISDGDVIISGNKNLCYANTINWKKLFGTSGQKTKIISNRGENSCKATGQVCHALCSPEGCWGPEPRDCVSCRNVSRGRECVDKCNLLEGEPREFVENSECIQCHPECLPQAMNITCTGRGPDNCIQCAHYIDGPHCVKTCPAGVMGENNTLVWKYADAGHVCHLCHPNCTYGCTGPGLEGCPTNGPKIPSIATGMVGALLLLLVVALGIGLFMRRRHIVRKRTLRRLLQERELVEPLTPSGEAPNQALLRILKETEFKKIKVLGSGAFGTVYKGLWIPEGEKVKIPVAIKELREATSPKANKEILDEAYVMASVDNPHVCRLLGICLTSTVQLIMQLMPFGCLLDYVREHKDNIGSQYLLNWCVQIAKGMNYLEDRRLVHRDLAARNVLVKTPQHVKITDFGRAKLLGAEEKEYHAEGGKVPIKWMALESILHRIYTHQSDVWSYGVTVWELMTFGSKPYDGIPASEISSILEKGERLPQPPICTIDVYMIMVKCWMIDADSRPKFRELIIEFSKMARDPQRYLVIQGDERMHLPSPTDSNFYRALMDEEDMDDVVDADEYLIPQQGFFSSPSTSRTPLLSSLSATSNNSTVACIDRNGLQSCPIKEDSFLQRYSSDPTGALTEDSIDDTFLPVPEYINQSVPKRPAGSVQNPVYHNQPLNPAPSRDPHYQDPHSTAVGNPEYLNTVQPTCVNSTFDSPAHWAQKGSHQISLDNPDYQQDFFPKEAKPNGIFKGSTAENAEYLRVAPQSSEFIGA

| Ki [1] [nM] | EC50 [2] [nM] | EC50 [3] [nM] | SMILES |
| --- | --- | --- | --- |
| < 0.6 | 608 | – | CC(C)n1nc(N2CCC(C(N)=O)C2)c2cnc(Nc3ccnc(-c4cnn(S(=O)(=O)C5CC5)c4)n3)cc21 (stereo not drawn) |
| – | > 10000 | > 10000 | CC(C)n1nc(F)c2cnc(Nc3ccnc(-c4cnn(S(=O)(=O)C5CC5)c4)n3)cc21 |
| – | > 10000 | > 10000 | CCC(C)n1nc(N2CC[C@H](O)C2=O)c2cnc(Nc3ccnc(N4CC[C@@H](O)[C@@H](F)C4)n3)cc21 (stereo partly drawn) |
| – | > 10000 | > 10000 | CC(C)n1nc(N2C[C@H](O)[C@@H](O)C2)c2cnc(Nc3ccnc(N4CCC(C)(O)CC4)n3)cc21 |
| – | > 10000 | > 10000 | CC1COCC(C)N1c1nn(C(C)C)c2cc(Nc3ccnc(-c4cnn(S(=O)(=O)C5CC5)c4)n3)ncc12 (stereo not drawn) |
| – | > 10000 | > 10000 | CC(C)n1nc(NC2CNC(=O)C2)c2cnc(Nc3ccnc(N4CCC(C)(O)CC4)n3)cc21 (stereo not drawn) |
| 1 | 211 | 20.9 | COCC1CN(c2nn(C(C)C)c3cc(Nc4ccnc(-c5cnn(S(=O)(=O)C6CC6)c5)n4)ncc23)C1 |
| – | 1830 | – | CC(C)n1nc(N2CC(C(=O)N3CC[C@@H](CO)C3)C2)c2cnc(Nc3ccnc(-c4cnn(S(=O)(=O)C5CC5)c4)n3)cc21 |
| – | 1090 | – | CCC(C)n1nc(N2CCN(C(=O)[C@@H](C)O)CC2)c2cnc(Nc3ccnc(-c4cnn(S(=O)(=O)C5CC5)c4)n3)cc21 (stereo partly drawn) |
| – | 1140 | – | CC(C)n1nc(N2CC3(CN(CC(F)(F)F)C3)C2)c2cnc(Nc3ccnc(-c4cnn(S(=O)(=O)C5CC5)c4)n3)cc21 |
| – | 377 | – | CC1CN(c2nn(C(C)C)c3cc(Nc4ccnc(-c5cnn(S(=O)(=O)C6CC6)c5)n4)ncc23)C(=O)N1 (stereo not drawn) |
| – | 1380 | – | CC(C)n1nc(N2CC(C(C)(C)C#N)C2)c2cnc(Nc3ccnc(-c4cnn(S(=O)(=O)C5CC5)c4)n3)cc21 |
| – | 2080 | – | CC(C)n1nc(NC(=O)C(C)(C)O)c2cnc(Nc3ccnc(-c4cnn(S(=O)(=O)C5CC5)c4)n3)cc21 |
| – | > 10000 | – | CC(C)n1nc(NCCC2OCC(N)CO2)c2cnc(Nc3ccnc(N4CCC(C)(O)CC4)n3)cc21 (stereo not drawn) |
| – | 190 | – | CC(C)n1nc(N2CC[C@@H](O)C2)c2cnc(Nc3ccnc(-c4cnn(S(=O)(=O)C5CC5)c4)n3)cc21 |
